Data as given in US20260365641A1, “Aromatic Acetylene Derivative, Preparation Method Therefor, And Use Thereof” (Zhejiang Hisun Pharmaceutical Co., Ltd., priority 2022, published 2026).
Values after ≈ are worked out from the molar mass of the structure shown.

Key:
[1] = target: T1, recombinant Pseudomonas aeruginosa LpxC (Pseudomonas aeruginosa, UniProt P47205); assay: Inhibition of enzymatic activity of recombinant Pseudomonas aeruginosa LpxC in vitro; assay type: biochemical; conditions: 5 nM LpxC; substrate UDP-3-O—(R-3-hydroxydecanoyl)-GlcNAc; 25 °C, 120 minutes; fluorescamine readout
T1 construct: purchased Signalway Antibody AP74647-2
T1 sequence (P47205 1-303): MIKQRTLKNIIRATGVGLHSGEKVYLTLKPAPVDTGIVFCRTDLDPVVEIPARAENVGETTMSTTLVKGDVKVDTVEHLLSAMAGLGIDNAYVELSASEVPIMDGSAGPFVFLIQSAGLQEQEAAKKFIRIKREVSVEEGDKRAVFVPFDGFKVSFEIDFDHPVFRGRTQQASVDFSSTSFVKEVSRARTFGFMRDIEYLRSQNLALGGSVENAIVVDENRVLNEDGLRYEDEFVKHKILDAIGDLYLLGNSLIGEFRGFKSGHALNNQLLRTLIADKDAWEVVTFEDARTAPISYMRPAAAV
How it was run: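 LpxC (5 nM final) was incubated with compound (8-point 4-fold series, 0.61–10000 nM) and […] UDP-3-O-(R-3-hydroxydecanoyl)-GlcNAc for 120 min at 25 °C. Product was detected with fluorescamine (Ex 390/Em 495 nm) after a pH 8.0 phosphate stop. IC50 was fitted by nonlinear regression against 0.1% DMSO control.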

E. coli ATCC 25922 = assay: Antibacterial activity, minimum inhibitory concentration (MIC) in vitro, broth dilution; assay type: cell-based; conditions: Escherichia coli, ATCC25922, 5×10^5 cfu/mL, 35 °C, 18-24 hours
Description: (§1) The minimum inhibitory concentration (MIC) in vitro was determined according to CLSI's guidelines, and a minimal broth dilution method was used.
(§2) The test process was briefly described as follows: the tested compound was dissolved in DMSO to prepare a storage solution of […], and then prepared into 11 two-fold-diluted 100× high-concentration working liquids (a final concentration of the system was 64 μg/mL to 0.06 μg/mL) by DMSO. Stains (K. pneumoniae ATCC13883, K. pneumoniae ATCC51504 and E. coli ATCC 25922) frozen at −80 °C with glycerin were inoculated to a solid agar culture medium, placed into an incubator for culturing for 18-24 hours at 35 °C to finish the preparation work of the strains. A proper amount of solid plate culture was collected, re-suspended in normal saline, and uniformly mixed. The turbidity of the bacterial suspension was adjusted to a proper turbidity by a turbidity meter, containing about 1×10^8 cfu/mL of bacteria. Then, the turbidity-regulated bacterial suspension was diluted with a test culture medium (type: CAMHIIB, purchased from BD company) to a bacterial concentration of 5×10^5 cfu/mL, thus finishing the preparation of an inoculation solution. 198 μL of the inoculation solution was inoculated into a 96-well plate, and added with 2 μL 100× high concentration working liquid of the compound, then the 96-well plate was placed at 35 °C for culturing for 18-24 hours.

K. pneumoniae ATCC13883 = assay: as above; assay type: cell-based; conditions: Klebsiella pneumoniae, 5×10^5 cfu/mL, 35 °C, 18-24 hours
Description: as §1, §2

K. pneumoniae ATCC51504 = assay: as above; assay type: cell-based; conditions: Klebsiella pneumoniae, 5×10^5 cfu/mL, 35 °C, 18-24 hours
Description: as §1, §2

C[C@H](O)c1nccn1Cc1cc(-c2ccc(C#CC3CC4(C3)CN(C(N)=O)C4)cc2)on1 [Example 21, (S)-6-((4-(3-((2-(1-hydroxyethyl)-1H-imidazol-1-yl)methyl)isoxazol-5-yl)phenyl)ethynyl)-2-azaspiro[3.3]heptane-2-carboxamide]
IC50 [1]: 5.11 nM | MIC (E. coli ATCC 25922): 2 µg/mL (≈ 4.64 µM) | MIC (K. pneumoniae ATCC13883): 4 µg/mL (≈ 9.27 µM)

C[C@H](O)c1nccn1Cc1cc(-c2ccc(C#CC3CC4(C3)CN(C=O)C4)cc2)on1 [Example 22, (S)-6-((4-(3-((2-(1-hydroxyethyl)-1H-imidazol-1-yl)methyl)isoxazol-5-yl)phenyl)ethynyl)-2-azaspiro[3.3]heptane-2-carbaldehyde]
IC50 [1]: 6.54 nM | MIC (E. coli ATCC 25922): 1 µg/mL (≈ 2.4 µM) | MIC (K. pneumoniae ATCC13883): 4 µg/mL (≈ 9.6 µM)

C[C@H](O)c1nccn1Cc1cc(-c2ccc(C#CC3CC4(CCN(C=O)C4)C3)cc2)on1 (stereo partly drawn) [Example 23, (S)-2-((4-(3-((2-(1-hydroxyethyl)-1H-imidazol-1-yl)methyl)isoxazol-5-yl)phenyl)ethynyl)-6-azaspiro[3.4]octane-6-carbaldehyde]
IC50 [1]: 6.36 nM | MIC (E. coli ATCC 25922): 2 µg/mL (≈ 4.65 µM) | MIC (K. pneumoniae ATCC13883): 4 µg/mL (≈ 9.29 µM)

C[C@H](O)c1nccn1Cc1cc(-c2ccc(C#CC3CC4(CCN(Cc5ccn[nH]5)CC4)C3)cc2)on1 [Example 25, (S)-1-(1-((5-(4-((7-((1H-pyrazol-5-yl)methyl)-7-azaspiro[3.5]nonan-2-yl)ethynyl)phenyl)isoxazol-3-yl)methyl)-1H-imidazol-2-yl)ethan-1-ol]
IC50 [1]: 7.28 nM | MIC (E. coli ATCC 25922): 2 µg/mL (≈ 4.03 µM) | MIC (K. pneumoniae ATCC13883): 4 µg/mL (≈ 8.05 µM)

C[C@H](O)c1nccn1Cc1cc(-c2ccc(C#CC3CC4(C3)CN(C(=O)CO)C4)cc2)on1 [Example 26, (S)-2-hydroxy-1-(6-((4-(3-((2-(1-hydroxyethyl)-1H-imidazol-1-yl)methyl)isoxazol-5-yl)phenyl)ethynyl)-2-azaspiro[3.3]heptan-2-yl)ethan-1-one]
IC50 [1]: 11.3 nM | MIC (E. coli ATCC 25922): 2 µg/mL (≈ 4.48 µM) | MIC (K. pneumoniae ATCC13883): 2 µg/mL (≈ 4.48 µM)

C[C@H](O)c1nccn1Cc1cc(-c2ccc(C#CC3CC4(CCN(Cc5ncc[nH]5)CC4)C3)cc2)on1 [Example 27, (S)-1-(1-((5-(4-((7-((1H-imidazol-2-yl)methyl)-7-azaspiro[3.5]nonan-2-yl)ethynyl)phenyl)isoxazol-3-yl)methyl)-1H-imidazol-2-yl)ethan-1-ol]
IC50 [1]: 6.08 nM | MIC (E. coli ATCC 25922): 2 µg/mL (≈ 4.03 µM) | MIC (K. pneumoniae ATCC13883): 4 µg/mL (≈ 8.05 µM)

C[C@H](O)c1nccn1Cc1cc(-c2ccc(C#CC3CC4(CCN(C(=O)CC#N)CC4)C3)cc2)on1 [Example 29, (S)-3-(2-((4-(3-((2-(1-hydroxyethyl)-1H-imidazol-1-yl)methyl)isoxazol-5-yl)phenyl)ethynyl)-7-azaspiro[3.5]nonan-7-yl)-3-oxopropanenitrile]
IC50 [1]: 6.17 nM | MIC (E. coli ATCC 25922): 2 µg/mL (≈ 4.14 µM) | MIC (K. pneumoniae ATCC13883): 4 µg/mL (≈ 8.27 µM)

C[C@H](O)c1nccn1Cc1cc(-c2ccc(C#CC3=CCN(C(=O)c4ccncc4)CC3)cc2)on1 [Example 33, (S)-(4-((4-(3-((2-(1-hydroxyethyl)-1H-imidazol-1-yl)methyl)isoxazol-5-yl)phenyl)ethynyl)-3,6-dihydropyridin-1(2H)-yl)(pyridin-4-yl)methanone]
IC50 [1]: 19.7 nM | MIC (E. coli ATCC 25922): 1 µg/mL (≈ 2.09 µM) | MIC (K. pneumoniae ATCC13883): 2 µg/mL (≈ 4.17 µM)

C[C@H](O)c1nccn1Cc1cc(-c2ccc(C#CC3=CCN(Cc4ccc(C(=O)O)cc4)CC3)cc2)on1 [Example 34, (S)-4-((4-((4-(3-((2-(1-hydroxyethyl)-1H-imidazol-1-yl)methyl)isoxazol-5-yl)phenyl)ethynyl)-3,6-dihydropyridin-1(2H)-yl)methyl)benzoic acid]
IC50 [1]: 26.7 nM | MIC (E. coli ATCC 25922): 2 µg/mL (≈ 3.93 µM) | MIC (K. pneumoniae ATCC13883): 4 µg/mL (≈ 7.87 µM)

CNC(=O)N1CC2(CC(C#Cc3ccc(-c4cc(Cn5ccnc5[C@H](C)O)no4)cc3)C2)C1 [Example 47, (S)-6-((4-(3-((2-(1-hydroxyethyl)-1H-imidazol-1-yl)methyl)isoxazol-5-yl)phenyl)ethynyl)-N-methyl-2-azaspiro[3.3]heptane-2-carboxamide]
IC50 [1]: 13.1 nM | MIC (E. coli ATCC 25922): 2 µg/mL (≈ 4.49 µM) | MIC (K. pneumoniae ATCC13883): 2 µg/mL (≈ 4.49 µM)

C[C@H](O)c1nccn1Cc1cc(-c2ccc(C#CC3CC4(C3)CN(C(=O)n3ccnc3)C4)cc2)on1 [Example 48, (S)-(6-((4-(3-((2-(1-hydroxyethyl)-1H-imidazol-1-yl)methyl)isoxazol-5-yl)phenyl)ethynyl)-2-azaspiro[3.3]heptan-2-yl)(1H-imidazol-1-yl)methanone]
IC50 [1]: 27.9 nM | MIC (E. coli ATCC 25922): 2 µg/mL (≈ 4.14 µM) | MIC (K. pneumoniae ATCC13883): 2 µg/mL (≈ 4.14 µM)

C[C@H](O)c1nccn1Cc1cc(-c2ccc(C#CC3CC4(C3)CN(C3CC(C#N)C3)C4)cc2)on1 (stereo partly drawn) [Example 49, (S)-3-(6-((4-(3-((2-(1-hydroxyethyl)-1H-imidazol-1-yl)methyl)isoxazol-5-yl)phenyl)ethynyl)-2-azaspiro[3.3]heptan-2-yl)cyclobutane-1-carbonitrile]
IC50 [1]: 22.6 nM | MIC (E. coli ATCC 25922): 1 µg/mL (≈ 2.14 µM) | MIC (K. pneumoniae ATCC13883): 2 µg/mL (≈ 4.28 µM)

C[C@H](O)c1nccn1Cc1cc(-c2ccc(C#CC3CC4(C3)CN(Cc3ncco3)C4)cc2)on1 [Example 52, (S)-1-(1-((5-(4-((2-(oxazol-2-ylmethyl)-2-azaspiro[3.3]heptan-6-yl)ethynyl)phenyl)isoxazol-3-yl)methyl)-1H-imidazol-2-yl)ethan-1-ol]
IC50 [1]: 13.9 nM | MIC (E. coli ATCC 25922): 1 µg/mL (≈ 2.13 µM) | MIC (K. pneumoniae ATCC13883): 2 µg/mL (≈ 4.26 µM) | MIC (K. pneumoniae ATCC51504): 1 µg/mL (≈ 2.13 µM)

C[C@H](O)c1nccn1Cc1cc(-c2ccc(C#CC3CC4(C3)CN(CCn3cncn3)C4)cc2)on1 [Example 53, (S)-1-(1-((5-(4-((2-(2-(1H-1,2,4-triazol-1-yl)ethyl)-2-azaspiro[3.3]heptan-6-yl)ethynyl)phenyl)isoxazol-3-yl)methyl)-1H-imidazol-2-yl)ethan-1-ol]
MIC (E. coli ATCC 25922): 2 µg/mL (≈ 4.14 µM) | MIC (K. pneumoniae ATCC13883): 8 µg/mL (≈ 16.5 µM) | MIC (K. pneumoniae ATCC51504): 2 µg/mL (≈ 4.14 µM)
